In this experiment the test system is Plasmodium berghei. The experiment is described as follows: Luciferase/luciferin-expressing antifolate-resistant parasites were used to infect a culture of HepG2 cells that were pre-incubated with compounds. Infected hepatocytes emit light due to the luciferase reaction. Assay results are presented as the percent inhibition of light emission compared to control. […]. The format is functional. Particulars: sporozoite; for IC90: read-out: LUCIFERASE INFECTION ASSAY - IC90.

The mark [1] stands for this setting: read-out: LUCIFERASE INFECTION ASSAY - IC50.

Where only a bound is given, the exact number is not on record here.

As for `COc1ccc(-c2cnc3cnc(-c4cccc(OC)c4F)cn23)cc1`, the IC90 turned out to be 4.49 µM. For the setting “HEPG2TOX_HILL_SLOPE 1.94, HEPG2TOX_R_SQUARED 0.943, PBLUC_HILL_SLOPE 2.65, PBLUC_R_SQUARED 0.707, read-out: LUCIFERASE INFECTION ASSAY - IC50”, the IC50 stood at 1.96 µM. Regarding `CCOC(C(=O)Nc1ccccc1Cc1ccccc1)(c1ccccc1)c1ccccc1`, the IC90 was more than 10 µM. Also, the IC50 under setting [1] is more than 10 µM. Regarding `COc1ccc(Nc2nccn3c(-c4cccc(NC(C)=O)c4)cnc23)cc1`, the IC90 amounted to 0.122 µM. For the compound `COc1ccc(C(=O)C(/C=N/N)=N/Nc2cc(C)cc(C)c2)cc1`, the IC90 came out at 5.98 µM. Also, the IC50 (HEPG2TOX_HILL_SLOPE 2.41, HEPG2TOX_R_SQUARED 0.984, PBLUC_HILL_SLOPE 5.05, PBLUC_R_SQUARED 0.51, read-out: LUCIFERASE INFECTION ASSAY - IC50) amounted to 3.87 µM. With `Cc1ccc(S(=O)(=O)N2CCCCC2)cc1NC(=O)C[N+]12CCN(CC1)CC2`, the IC90 was more than 10 µM. Further, the IC50 under setting [1] was more than 10 µM. On to `CC1Cc2ccccc2N1C(=O)CSC1=NNC(=C2N=Nc3ccccc32)N1c1ccccc1` (configuration not stated), for which the IC90 is 8.33 µM. Further, the IC50 (FFLUC_HILL_SLOPE 19.6, FFLUC_R_SQUARED 0.491, PBLUC_HILL_SLOPE 5.23, PBLUC_R_SQUARED 0.568, read-out: LUCIFERASE INFECTION ASSAY - IC50) is 5.48 µM.

For the compound `CN(CCOc1ccccc1)C(=O)c1ccc(Cl)c(S(=O)(=O)N(Cc2ccccc2)c2ccccc2)c1`, the IC90 was more than 10 µM. Besides, where the note is “HEPG2TOX_HILL_SLOPE 5.5, HEPG2TOX_R_SQUARED 0.0292, PBLUC_HILL_SLOPE 16, PBLUC_R_SQUARED 0.261, read-out: LUCIFERASE INFECTION ASSAY - IC50”, the IC50 was found to be 9.56 µM. `CN(Cc1ccccc1NC(=O)c1ccc2c(c1)OCC(=O)N2)C1CCCCC1`: the IC90 is more than 10 µM. Moreover, where the note is “PBLUC_HILL_SLOPE 10.4, PBLUC_R_SQUARED 0.15, read-out: LUCIFERASE INFECTION ASSAY - IC50”, the IC50 was 9.56 µM. `O=C(Nc1cc(Cl)cc(Cl)c1)OCc1ccc(Oc2ccccc2)c([N+](=O)[O-])c1`: the IC90 is more than 7.62 µM. In addition, the IC50 under setting [1] is more than 7.62 µM. With `COC(=O)c1ccc2c(=O)nc(CN3CCc4sccc4C3C)[nH]c2c1` (configuration not stated), the IC90 is more than 10 µM. The IC50 (PBLUC_HILL_SLOPE 11, PBLUC_R_SQUARED 0.235, read-out: LUCIFERASE INFECTION ASSAY - IC50) was more than 10 µM. For the compound `COc1cc(F)c(S(=O)(=O)N2CCCc3cc(F)cc(F)c32)cc1OC`, the IC90 was more than 10 µM. The IC50 (PBLUC_HILL_SLOPE 2.81, PBLUC_R_SQUARED 0.427, read-out: LUCIFERASE INFECTION ASSAY - IC50) is 6.52 µM.

Regarding `Cc1ccc(NC(=O)c2cc(-c3cc(Cl)ccc3C)[nH]n2)cc1NS(C)(=O)=O`, the IC90 is 7.29 µM. Also, for the setting “PBLUC_HILL_SLOPE 10.6, PBLUC_R_SQUARED 0.45, read-out: LUCIFERASE INFECTION ASSAY - IC50”, the IC50 came out at 5.92 µM. As to `O=C(/C(=N/Nc1ccc(Cl)cc1Cl)C(=O)C(F)(F)F)c1cccs1`, the IC90 was determined as 5.87 µM. Further, the concentration for half-maximal inhibition (IC50) (FFLUC_HILL_SLOPE 16.5, FFLUC_R_SQUARED 0.242, PBLUC_HILL_SLOPE 1.77, PBLUC_R_SQUARED 0.602, read-out: LUCIFERASE INFECTION ASSAY - IC50) turned out to be 1.7 µM.

In the case of `Cc1nc(SCc2csc(-c3ccccc3)n2)c(C#N)c(C)c1C`, the 90% effect concentration (IC90) is more than 10 µM. In addition, under setting [1], the IC50 was more than 10 µM. Consider `Cc1nc2c(C)cccn2c1C(=O)NN1C(=O)CSC1c1ccccc1` (configuration not stated), for which the IC90 was more than 8 µM. Besides, the IC50 under setting [1] was found to be 7.23 µM.

As to `Cn1c(-c2ccccc2)c(C(=O)COc2ccc(-c3ccccc3)cc2)c2ccccc21`, the IC90 is more than 10 µM. In addition, where the note is “HEPG2TOX_HILL_SLOPE 1.37, HEPG2TOX_R_SQUARED 0.968, PBLUC_HILL_SLOPE 1.98, PBLUC_R_SQUARED 0.384, read-out: LUCIFERASE INFECTION ASSAY - IC50”, the IC50 came to 4.87 µM. As to `COCCn1c(C(=O)OC)c(NC(=O)c2ccco2)c2cc(NCC(C)c3ccccc3)cnc21` (configuration not stated), the IC90 was more than 6.93 µM. In addition, where the note is “PBLUC_HILL_SLOPE 27.9, PBLUC_R_SQUARED 0.298, read-out: LUCIFERASE INFECTION ASSAY - IC50”, the IC50 came out at 6.65 µM. As to `O=C(Nc1cccc(Cl)c1)Nc1csc([N+](=O)[O-])c1`, the IC90 was determined as 9.45 µM. The IC50 (HEPG2TOX_HILL_SLOPE 11, HEPG2TOX_R_SQUARED 0.423, PBLUC_HILL_SLOPE 4.17, PBLUC_R_SQUARED 0.367, read-out: LUCIFERASE INFECTION ASSAY - IC50) is 5.58 µM.

Turning to `CN(C)CCNC(=O)c1ccc(-c2cn3c(-c4cccc(OC(F)(F)F)c4)cnc3cn2)cc1`, the IC90 was more than 7.03 µM. Besides, for the setting “PBLUC_HILL_SLOPE 3.61, PBLUC_R_SQUARED 0.27, read-out: LUCIFERASE INFECTION ASSAY - IC50”, the IC50 was 5.86 µM. As to `N#C/C(=C\Nc1cc(C(F)(F)F)cc(C(F)(F)F)c1)S(=O)(=O)c1ccc(OC(F)(F)F)cc1`, the IC90 was more than 6.54 µM. For the same compound, the IC50 (PBLUC_HILL_SLOPE 4.15, PBLUC_R_SQUARED 0.029, read-out: LUCIFERASE INFECTION ASSAY - IC50) was more than 6.54 µM. For `Cc1nc2ccccc2c(=O)n1/N=C/c1cn(-c2ccccc2)nc1-c1cccs1`, the IC90 is more than 10 µM. In addition, the IC50 (PBLUC_HILL_SLOPE 10.9, PBLUC_R_SQUARED 0.148, read-out: LUCIFERASE INFECTION ASSAY - IC50) amounted to 8.36 µM.

Take `Cc1ccc2ncnc(NCCc3ccccc3)c2c1`: the IC90 was found to be 2.82 µM. For the same compound, the IC50 (HEPG2TOX_HILL_SLOPE 0.814, HEPG2TOX_R_SQUARED 0.649, PBLUC_HILL_SLOPE 2.08, PBLUC_R_SQUARED 0.658, read-out: LUCIFERASE INFECTION ASSAY - IC50) came out at 0.984 µM. For the compound `O=C(NC(c1ccccc1)c1ccccc1)[C@@H]1C[C@@H](OCc2ccccc2)CN1CC1CCCCC1`, the concentration for an effect of 90% (IC90) is more than 6.84 µM. Also, the IC50 (FFLUC_HILL_SLOPE 11.2, FFLUC_R_SQUARED 0.284, read-out: LUCIFERASE INFECTION ASSAY - IC50) was more than 6.84 µM. As to `Cc1cc(/C=C(\C#N)c2nc3ccccc3[nH]2)c(C)n1-c1cc(C(F)(F)F)ccc1Cl`, the IC90 worked out at 5.02 µM. Further, the IC50 (HEPG2TOX_HILL_SLOPE 9.28, HEPG2TOX_R_SQUARED 0.884, PBLUC_HILL_SLOPE 1.82, PBLUC_R_SQUARED 0.761, read-out: LUCIFERASE INFECTION ASSAY - IC50) came to 1.5 µM. Regarding `C=CCn1c(COc2ccc(CC)cc2)nnc1SCC(=O)/C(C#N)=C(\C)N`, the IC90 is more than 10 µM. Besides, the IC50 (HEPG2TOX_HILL_SLOPE 17.4, HEPG2TOX_R_SQUARED 0.832, PBLUC_HILL_SLOPE 1.76, PBLUC_R_SQUARED 0.574, read-out: LUCIFERASE INFECTION ASSAY - IC50) worked out at 6.67 µM. On to `CC(C)CNc1nn2c(-c3cccc(C(=O)N(C)C)c3)cnc2s1`, for which the IC90 is more than 9.61 µM. Also, the IC50 (FFLUC_HILL_SLOPE 13.4, FFLUC_R_SQUARED 0.472, read-out: LUCIFERASE INFECTION ASSAY - IC50) is more than 9.61 µM. For `O=C(NCCCNc1ccnc2cc(Cl)ccc12)c1ccccc1F`, the IC90 worked out at 6.19 µM. In addition, the IC50 (PBLUC_HILL_SLOPE 1.88, PBLUC_R_SQUARED 0.797, read-out: LUCIFERASE INFECTION ASSAY - IC50) was 1.93 µM.

Take `O=C(OCc1ccccc1)C1=C2Sc3ccccc3N2C(=O)NC1(c1ccccc1)C(F)(F)F` (configuration not stated): the IC90 is more than 10 µM. For the same compound, where the note is “FFLUC_HILL_SLOPE 11.9, FFLUC_R_SQUARED 0.439, PBLUC_HILL_SLOPE 2.55, PBLUC_R_SQUARED 0.528, read-out: LUCIFERASE INFECTION ASSAY - IC50”, the IC50 came to 6.8 µM.

For `COc1ccc(CN2CCN(c3nc4c(Cl)c(C)nn4c4ccccc34)CC2)cc1OC`, the IC90 is more than 10 µM. The IC50 (HEPG2TOX_HILL_SLOPE 0.0984, HEPG2TOX_R_SQUARED 0.313, PBLUC_HILL_SLOPE 1.53, PBLUC_R_SQUARED 0.0755, read-out: LUCIFERASE INFECTION ASSAY - IC50) is more than 10 µM. Turning to `O=C(Nc1ccc(OC(F)(F)F)cc1)Nc1ccccc1Sc1ncc([N+](=O)[O-])cc1C(F)(F)F`, the IC90 is more than 6.37 µM. Under “FFLUC_HILL_SLOPE 90.5, FFLUC_R_SQUARED 0.394, read-out: LUCIFERASE INFECTION ASSAY - IC50”, the IC50 is more than 6.37 µM. On to `N#Cc1nn(-c2cccc(Cl)c2)c(=O)cc1Cl`, for which the IC90 was found to be 11.9 µM. Besides, the IC50 (FFLUC_HILL_SLOPE 0.646, FFLUC_R_SQUARED 0.469, HEPG2TOX_HILL_SLOPE 5.31, HEPG2TOX_R_SQUARED 0.933, PBLUC_HILL_SLOPE 9.19, PBLUC_R_SQUARED 0.334, read-out: LUCIFERASE INFECTION ASSAY - IC50) came to 9.36 µM. For the compound `CS(=O)(=O)Nc1ccc(-c2csc(Nc3ccccn3)n2)cc1`, the IC90 was determined as 9.68 µM. Moreover, the IC50 (HEPG2TOX_HILL_SLOPE 3.13, HEPG2TOX_R_SQUARED 0.99, PBLUC_HILL_SLOPE 12.3, PBLUC_R_SQUARED 0.0453, read-out: LUCIFERASE INFECTION ASSAY - IC50) came out at 8.1 µM. For `COc1ccc(NC(=O)C2C(=S)NC(=N)C(C#N)C2c2ccc(Cl)cc2)cc1` (configuration not stated), the IC90 was more than 10 µM. The IC50 under setting [1] was more than 10 µM. Regarding `O=C(Cn1ncc(Cl)c(Cl)c1=O)Nc1cc(S(=O)(=O)N2CCOCC2)ccc1Cl`, the IC90 was determined as 3.74 µM. Further, for the setting “HEPG2TOX_HILL_SLOPE 12.1, HEPG2TOX_R_SQUARED 0.84, PBLUC_HILL_SLOPE 14, PBLUC_R_SQUARED 0.266, read-out: LUCIFERASE INFECTION ASSAY - IC50”, the IC50 was found to be 3.2 µM.

For orientation: IC50 means the concentration needed to halve the response being measured. As usually defined, the IC90 is the concentration needed for an effect of 90%.
